From patent US7135481B2, “Naphthalimide compositions and uses thereof” (ChemGenex Pharmaceuticals, Inc., priority 2000, dated 2006)

Legend:
[1] = tested on: RIF-1 murine fibrosarcoma; assay: Example 2: RIF-1 tumor growth delay (TVQT), amonafide alone and with other chemotherapeutics; settings: for TVQT: single agent, mean ± SE
Protocol: Animals: Female C3H mice (Charles River Laboratories, Holister, Calif.), approximately 3 months old, were used for the study. The average body weight was approximately 25 g. Animals were maintained in isolator cages on a 12-hour light-and-dark cycle. Food and water were available ad libitum.
Tumors: The RIF-1 murine fibrosarcoma cell line was maintained in in vitro culture (Waymouth medium supplemented with 20% fetal bovine serum) at 37 C. in a humidified 5% CO2 incubator. Log-phase RIF-1 cells were trypsinized and harvested from cell culture flasks to yield a concentration of 4×10^6 cells/mL, then injected intradermally in a volume of 50 μL (equivalent to 2×10^5 cells per injection) into both flanks of each mouse. Nine days later, when tumors reached approximately 100 mm^3 in size, the animals were randomized to different treatment groups.
Four to five animals were assigned to each treatment group. The intrperitoneal injection volume was 100 μL. The oral administration volume was 100 μL. Combination treatments using two test agents were administered as two separate injections, with the second one following the first either immediately or after 30 minutes.
Tumor volume (cubic millimeters, mm^3) was calculated according to the formula: V=π/6×D1×D2×D3 in which D1–3 are perpendicular diameters measured in millimeters (mm).
Tumor volume quadrupling time (TVQT), defined as the time required for a tumor to grow to four times (4×) its initial volume (at the time of treatment), was used as a study endpoint. The TVQT was determined for each treatment group and expressed in days as the mean±standard error (SE).

[2] = tested on: murine fibrosarcomas (RIF-1 cells); assay: Example 3: RIF-1 tumor growth delay (TGD), amonafide with camptothecin, genistein or rosmarinic acid; type: in vivo, C3H mice; settings: single agent
Protocol: Transplantable experimental murine fibrosarcomas (2×10^5 RIF-1 cells) were grown intradermally in the flanks of 3 month old female C3H mice (Charles River, Holister, Calif.). When the tumors reached a volume of −100 mm^3, the mice were randomly assigned to each experimental group (4 mice per group).
Amonafide was manufactured by Penta for ChemGenex and was made to the appropriate concentration in saline. […] The compositions were injected systemically (i.e., intraperitoneally, i.p.), in a volume of 100 μl. For the treatment of groups 3, 5 and 7, amonafide, was injected immediately prior to the injection of camptothecin, genistein or rosmarinic acid. After treatment, the growth of the tumors was monitored three times per week by caliper measurements of three perpendicular diameters of the tumor and calculation of tumor volume from the formula: V=π/6×D1×D2×D3, where D1-3 represents tumor diameters, in mm.
The data is also expressed as the tumor growth delay (TGD) median which is the median days to 4× the tumor volume from the initial treatment day, and as the delay which is the median days to 4× of the treated group minus the median days to 4× of the control group. The T/C ratio is the ratio of days to 4× of the treated tumors over the days to 4× of the untreated control tumors. Increasing values indicate increased antitumor response.
The tumors were followed until they reached 4 times their Day 0 treatment volume or up to 30 days after treatment (tumor growth delay, TGD), whichever came first. The data is also expressed as the ratio of the tumor growth delay of the treated tumor (TGD) over the untreated control group (CTGD). Increasing values of this ratio indicate increased antitumor response.

[3] = tested on: murine fibrosarcomas (RIF-1 cells); assay: Example 1: tumor growth delay (TVQT) of RIF-1 fibrosarcoma, amonafide with cisplatin; type: in vivo, C3H mice; settings: single agent
Protocol: When the tumors reached a volume of approximately 100 mm3, the mice were randomly assigned to each experimental group (4 mice per group).
The chemopotentiator, amonafide, was obtained from NCI and was made to the appropriate concentration in DMSO. […] The compositions were injected systemically (i.e., intraperitoneally, i.p.), in a volume of 100 microliters. For the treatment of group 3, the chemopotentiator, amonafide, was injected 30 minutes prior to the injection of cisplatin. After treatment, the growth of the tumors was monitored three times per week by caliper measurements of three perpendicular diameters of the tumor and calculation of tumor volume from the formula: V=π/6×D1×D2×D3, where D1-3 represents tumor diameters, in mm.
The tumors were followed until they reached a size of four times their day zero treatment volume (TVQT), or up to 30 days after treatment, whichever came first. The data is expressed as the “tumor volume quadrupling time” (TVQT) mean and as the “delay.” Mean TVQT is the mean days required for individual tumors to grow to four times the tumor volume at the initial treatment day. The “delay” is the median of days required for a tumor to grow to four times the mean size of the treated group, minus the median of days required to grow to four times the mean size of the control group. The data is also expressed as the ratio of the tumor volume quadrupling time of the treated tumor over the untreated control group (TVQT/CTVQT). Increasing values of this ratio indicate increased antitumor response.

[4] = Example 2: animal deaths after treatment; type: in vivo, C3H mice; settings: formulated in DMSO at 12.5 mg/mL, IP
Protocol: The average body weight was approximately 25 g. […] Food and water were available ad libitum.
The intrperitoneal injection volume was 100 μL. The oral administration volume was 100 μL.

`CC[C@]1(O)C[C@@H]2CN(CCc3c([nH]c4ccccc34)[C@@](C(=O)OC)(c3cc4c(cc3OC)N(C)[C@H]3[C@@](O)(C(=O)OC)[C@H](OC(C)=O)[C@]5(CC)C=CCN6CC[C@]43[C@@H]65)C2)C1` [Vinblastine] gave a TVQT ([1]; 2 mg/Kg IP) of 8.6 days and a TVQT ([1]; 2 mg/Kg IP, listed as Vinblastine/Saline) of 8.6 ± 0.4 days.
`COc1cc2c(c(OC)c1OC)-c1ccc(OC)c(=O)cc1[C@@H](NC(C)=O)CC2` [Colchicine, colchicine] showed a TVQT ([1]; 10 mg/Kg PO) of 6.3 days and a TVQT ([1]; 10 mg/Kg PO, listed as Colchicine/Saline) of 6.3 ± 0.3 days.
Compound `COC(=O)C[C@](O)(CCCC(C)(C)O)C(=O)O[C@@H]1C(OC)=C[C@]23CCCN2CCc2cc4c(cc2[C@H]13)OCO4` [Homoharringtonine, homoharringtonine] has a TVQT ([1]; 4 mg/Kg IP, listed as Homoharringtonine/WFI) of 8.5 ± 0.5 days and a TVQT ([1]; 4 mg/Kg IP, listed as homoharringtonie) of 8.5 days.
In the case of `CC[C@@]1(O)C(=O)OCc2c1cc1n(c2=O)Cc2cc3ccccc3nc2-1` [Camptothecin], the “Delay” value ([2]; 6 mg/kg i.p.) is reported as 5.45 days, the “Median (TGD)” value ([2]; 6 mg/kg i.p.) is reported as 12.8 days and the “TGD ± S.E.” value ([2]; 6 mg/kg i.p.) is reported as 12.9 ± 0.5 days. For the same compound, the TGD/CTGD ([2]; 6 mg/kg i.p.) was 1.7.
`O=c1[nH]cc(F)c(=O)[nH]1` [5-Fluorouracil] gave a TVQT ([1]; 15 mg/Kg IP) of 6.7 days, a TVQT ([1]; 15 mg/Kg IP, listed as Fluorouracil/Saline) of 6.7 ± 0.4 days and a TVQT ([1]; 30 mg/Kg IP) of 13.6 days. It also gave a TVQT ([1]; 30 mg/Kg IP, listed as Fluorouracil/Saline) of 13.6 ± 1.9 days.
In the case of `CC(=O)O[C@H]1C(=O)[C@@]2(C)[C@H]([C@H](OC(=O)c3ccccc3)[C@]3(O)C[C@H](OC(=O)[C@H](O)[C@@H](NC(=O)c4ccccc4)c4ccccc4)C(C)=C1C3(C)C)[C@]1(OC(C)=O)CO[C@@H]1C[C@@H]2O` [Paclitaxel], the TVQT ([1]; 10 mg/Kg IP) is reported as 7.9 days and the TVQT ([1]; 10 mg/Kg IP, listed as Paclitaxel/Cremaphor EL) is reported as 7.9 ± 0.3 days.
With `O=C(/C=C/c1ccc(O)c(O)c1)O[C@H](Cc1ccc(O)c(O)c1)C(=O)O` [Rosmarinic Acid] the “Delay” value ([2]; 20 mg/kg i.p.) was 0.46 days, the “Median (TGD)” value ([2]; 20 mg/kg i.p.) was 7.8 days and the “TGD ± S.E.” value ([2]; 20 mg/kg i.p.) was 8.4 ± 0.5 days. For the same compound, the TGD/CTGD ([2]; 20 mg/kg i.p.) was 1.1.
`COc1cc([C@@H]2c3cc4c(cc3[C@@H](O[C@@H]3O[C@@H]5CO[C@@H](C)O[C@H]5[C@H](O)[C@H]3O)[C@H]3COC(=O)[C@H]23)OCO4)cc(OC)c1O` [Etoposide] gave a TVQT ([1]; 10 mg/Kg IP) of 8.5 days and a TVQT ([1]; 10 mg/Kg IP, listed as Etoposide/Saline) of 8.5 ± 0.5 days.
`COc1cc(/C=C/C(=O)CC(=O)/C=C/c2ccc(O)c(OC)c2)ccc1O` [Curcumin] gave a TVQT ([1]; 25 mg/Kg IP) of 9.7 days and a TVQT ([1]; 25 mg/Kg IP, listed as Curcumin/DMSO) of 9.7 ± 1.1 days.
With `N.N.[Cl][Pt][Cl]` [Cisplatin, cis-diamminedichloroplatinum II] the “Delay” value ([3]; 4 mg/kg i.p.) was 2.10 days, the “Mean TVQT ± S.E.” value ([3]; 4 mg/kg i.p.) was 8.4 ± 0.3 days and the “Median (TVQT)” value ([3]; 4 mg/kg i.p.) was 8.1 days. It also gave a TVQT/CTVQT ([3]; 4 mg/kg i.p.) of 1.3, a TVQT ([1]; 4 mg/Kg IP) of 9.2 days and a TVQT ([1]; 4 mg/Kg IP, listed as Cisplatin/WFI) of 9.2 ± 0.4 days.
With `O=c1c(-c2ccc(O)cc2)coc2cc(O)cc(O)c12` [Genistein] the “Delay” value ([2]; 60 mg/kg i.p.) was 0.78 days, the “Median (TGD)” value ([2]; 60 mg/kg i.p.) was 8.1 days and the “TGD ± S.E.” value ([2]; 60 mg/kg i.p.) was 7.9 ± 0.4 days. It also gave a TGD/CTGD ([2]; 60 mg/kg i.p.) of 1.1.
In the case of `CN(C)CCN1C(=O)c2cccc3cc(N)cc(c23)C1=O` [Amonafide, 5-amino-2-[(dimethylamine)ethyl]-1H-benz[de-]isoquinoline-1,3-(2H)-dione], the “Delay” value ([3]; 50 mg/kg i.p.) is reported as 2.94 days, the “Mean TVQT ± S.E.” value ([3]; 50 mg/kg i.p.) is reported as 9.7 ± 0.6 days and the “Median (TVQT)” value ([3]; 50 mg/kg i.p.) is reported as 9.0 days. For the same compound, the TVQT/CTVQT ([3]; 50 mg/kg i.p.) was 1.5, the “Delay” value ([2]; 30 mg/kg i.p.) was -0.36 days and the “Median (TGD)” value ([2]; 30 mg/kg i.p.) was 7.0 days. The “TGD ± S.E.” value ([2]; 30 mg/kg i.p.) was 7.0 ± 0.4 days, the TGD/CTGD ([2]; 30 mg/kg i.p.) was 0.9 and the animal deaths [4] was “Two of four mice died”. For the same compound, the TVQT ([1]; 30 mg/Kg IP) was 7.3 days, the TVQT ([1]; 30 mg/Kg IP, listed as Amonafide-Penta/Saline) was 7.3 ± 0.2 days and the “antitumor activity, summary in words (versus amonafide alone and the individual test agents)” value ([1]; intraperitoneal amonafide, alone or in combination) was “had antitumor activity”.
